Data set [1] has as its system Rattus norvegicus. Put plainly: Antiinflammatory activity was evaluated by contund edema assay after 3 hr at 200 mg/kg concentration administered perorally. Format: functional. As to conditions: route oral.
Data set [2] relates to Rattus norvegicus. Put plainly: Antiinflammatory activity was evaluated by carrageenan-induced rat paw edema assay after 3 hr at 100 mg/kg concentration administered perorally. The format is functional. As to conditions: route oral.
Data set [3] in a line: Compound was evaluated for lethal dose in mice when administarted intraperitoneally. The format is toxicity, organism-based. As to conditions: mouse, in vivo, ip.
Another data set concerns Mus musculus. Put plainly: Compound was evaluated for analgesic activity at 100 mg/kg when administered perorally (- = positive mice</= 1). Format: functional. As to conditions: route oral.

In the case of `Cc1cccc(-c2nc3ccccc3[nH]2)n1`, in the data set on Rattus norvegicus [1], the inhibition in vivo at 200 mg/kg was 59%. Testing at 100 mg/kg in the data set on Rattus norvegicus [2] gave an inhibition in vivo of 44%. Further, the LD50 in data set [3] stood at 3250 mg/kg. This compound displayed an Activity in the data set with Mus musculus of 1.
